Entries after “also recorded” stand apart in the source; their conditions may differ. Like-named read-outs stand apart in the source and are kept apart here.
Tests used:
[1] = tested on: elderly male and female volunteers; test: Serum lipid profile at baseline and after 28 days treatment; type: in vivo, human
Description: At every visit (including at screening and follow-up), blood and urine samples were collected for clinical laboratory assessments (general blood biochemistry, full blood count, coagulation parameters and urinalysis). On the same days, physical examination, vital signs (resting pulse rate, respiration rate, temperature, and blood pressure readings), pre- and post-dose 12-lead ECG and a review of adverse events (AE) and any medications received were also performed. Safety evaluations were based on the incidence, severity and type of AEs and clinically significant changes from baseline in physical examination findings, vital signs or clinical laboratory results.

rats and dogs = tested on: rats and dogs; parameters: method as in ref 17, 18; SRT2104 Investigator's Brochure; conditions: acute safety pharmacology, doses up to 2.0 g/kg; SRT2104 Investigator's Brochure; cited from earlier work
CYP2C19 = conditions: human liver microsomes; cited from earlier work
CYP2D6 = conditions: human liver microsomes; cited from earlier work
CYP3A4 = conditions: human liver microsomes; cited from earlier work
CYP1A = tested on: CYP1A; parameters: method as in ref 17, 18 (a number printed in a supplementary file, which may have a reference list of its own: not looked up in the article's list); conditions: cultured hepatocytes, at the concentrations tested; cited from earlier work
[2] = cited from earlier work
healthy male volunteers = conditions: young healthy volunteers, up to 7 days dosing of 0.03–3.0 g/day; cited from earlier work
39 common receptors = tested on: 39 common receptors; parameters: method as in SRT2104 Investigator's Brochure; conditions: in vitro; ref SRT2104 Investigator's Brochure; cited from earlier work
dog = tested on: dog; parameters: method as in SRT2104 Investigator's Brochure; conditions: ref SRT2104 Investigator's Brochure, cited from earlier work
healthy male subjects = tested on: healthy male subjects; parameters: method as in SRT-2104-002; conditions: 250 mg oral suspension and intravenous microdose of 100µg 14C-SRT2104, eight healthy male subjects; ref SRT-2104-002; cited from earlier work
[3] = cited from earlier work; remark: listed apart in the source

Q: For `Cc1nc(-c2cccnc2)sc1C(=O)Nc1ccccc1-c1cn2c(CN3CCOCC3)csc2n1` [SRT2104], which “serum cholesterol levels, change relative to baseline as compared to placebo” value ([1]; 0.5 g/day, day 28, p = 0.0071) is on record?
A: statistically significant decrease

Q: And the “increase in mean HDL:LDL ratio as compared to placebo” value ([1]; 2.0 g/day, day 28, p = 0.0141)?
A: statistically significant

Q: What about the “serum cholesterol levels, change relative to baseline as compared to placebo” value ([1]; 2.0 g/day, day 28, p = 0.0181) of the same molecule?
A: statistically significant decrease

Q: What about the “total cholesterol, LDL levels and HDL:LDL ratio after drug washout” value ([1]; 7 days of drug washout) of the same molecule?
A: reverted to baseline values

Q: And the “high-density lipoprotein, HDL” value ([1]; day 28)?
A: not changes

Q: And the “low-density lipoprotein (LDL) cholesterol” value ([1]; day 28)?
A: decreases

Q: What about the “mean HDL:LDL ratios” value ([1]; day 28, 0.5 and 2.0 g/day) of the same molecule?
A: dose-dependent increase

Q: And the “mean serum triglyceride concentration” value ([1]; day 28 relative to baseline, as compared to placebo, not dose-dependent, only a trend for 2.0 g/day)?
A: decrease

Q: What about the “Serum cholesterol, LDL levels and triglycerides” value ([1]; with treatment, 0.5 or 2.0 g for 28 days) of the same molecule?
A: decreased

Q: What about the “central nervous system, cardiovascular system and pulmonary effects” value (rats and dogs) of the same molecule?
A: no central nervous system (CNS), cardiovascular system (CVS) or pulmonary effects; also recorded: not associated with adverse central nervous system, cardiovascular system, or pulmonary effects

Q: What about the “inhibition of CYP2C19” value (CYP2C19) of the same molecule?
A: not an inhibitor; also recorded: does not inhibit

Q: What about the “inhibition of CYP2D6” value (CYP2D6) of the same molecule?
A: not an inhibitor; also recorded: does not inhibit

Q: And the “inhibition of CYP3A4” value (CYP3A4)?
A: not an inhibitor; also recorded: does not inhibit

Q: What about the “induction of CYP1A” value (CYP1A) of the same molecule?
A: not a significant inducer

Q: And the “dose proportionality of AUC(0-t) and Cmax” value ([2]; dose range 0.03 to 1.0 g/day)?
A: approximate dose proportionality

Q: What about the “dose proportionality of AUC(0-t) and Cmax” value ([2]; doses greater than 1.0 g/day up to 3.0 g/day) of the same molecule?
A: less than dose proportional increase between 1.0–3.0 g/day

Q: What about the “effect of dose on elimination half-life (t1/2)” value ([2]; doses up to 3.0 g/day) of the same molecule?
A: not affected by dose; also recorded: similar

Q: What about the “terminal elimination half-life (t½)” value ([2]; healthy male volunteers, 0.03 – 3.0 g/day, liquid suspension, ref SRT-2104-001 (19)) of the same molecule?
A: 8 to 24 h

Q: What about the tolerability (healthy male volunteers) of the same molecule?
A: well tolerated and safe

Q: What about the “inhibitory activity against 39 common receptors” value (39 common receptors) of the same molecule?
A: no significant inhibitory activity

Q: And the tolerability (dog; dog, up to 2.0 g/kg for 28 days)?
A: well tolerated at all doses

Q: What about the “increase in indirect bilirubin” value (dog; female dogs, 2.0 g/kg/day group) of the same molecule?
A: < 2 X

Q: And the NOAEL (dog; male and female dogs, 28 days)?
A: 1.0 g/kg

Q: What about the tolerability (healthy male subjects) of the same molecule?
A: well-tolerated

Q: And the “effect of food on overall exposure” value ([3]; 0.5 and 2.0 g doses, standardized solid meal vs fasted state)?
A: increase exposure levels; also recorded: increase in overall exposure

Q: What about the “effect of food on inter-subject variability in exposure” value ([3]; fed state vs fasted state) of the same molecule?
A: substantial reduction in inter-subject variability
